Source: publication PMC9743148 (Annals of oncology : official journal of the European …, 2020)

How the values were obtained:
[1] = test system: advanced solid tumors
[2] = clinical; conditions: human, plasma, oral; for AUC(0-inf): AUC0–inf; for AUC(0-t): AUC0–last
[3] = 4 mg, 4 mg q.d., cycle 1 Day 1, mean
[4] = 4 mg, 4 mg q.d., cycle 1 Day 21, mean
[5] = 8 mg, 8 mg q.d., cycle 1 Day 1, mean
[6] = 8 mg, 8 mg t.i.w., cycle 1 Day 1, mean
[7] = 8 mg, 8 mg q.d., cycle 1 Day 21, mean
[8] = 8 mg, 8 mg t.i.w., cycle 1 Last Wednesday, mean
[9] = 16 mg, 16 mg q.d., cycle 1 Day 1, mean
[10] = 16 mg, 16 mg t.i.w., cycle 1 Day 1, mean
[11] = 16 mg, 16 mg q.d., cycle 1 Day 21, mean
[12] = 20 mg, 20 mg q.d., cycle 1 Day 1, mean
[13] = 20 mg, 20 mg q.d., cycle 1 Day 21, mean
[14] = 24 mg, 24 mg q.d., cycle 1 Day 1, mean
[15] = 24 mg, 24 mg t.i.w., cycle 1 Day 1, mean
[16] = 24 mg, 24 mg q.d., cycle 1 Day 21, mean
[17] = 36 mg, 36 mg t.i.w., cycle 1 Day 1, mean
[18] = 56 mg, 56 mg t.i.w., cycle 1 Day 1, mean
[19] = 80 mg, 80 mg t.i.w., cycle 1 Day 1, mean
[20] = 120 mg, 120 mg t.i.w., cycle 1 Day 1, mean
[21] = 160 mg, 160 mg t.i.w., cycle 1 Day 1, mean

## C=CC(=O)N1CC[C@H](n2nc(C#Cc3cc(OC)cc(OC)c3)c3c(N)ncnc32)C1 [futibatinib]
[1]; 18 of 24 patients with cholangiocarcinoma
  Patients with CCA experiencing PR or SD: 75%
[1]; across cohorts (n = 86)
  Best overall response of confirmed partial response (PR): five
[1]; five responders
  Responses lasting >6 months: three
  Responses occurring within 3 months of initiating futibatinib: Four of five
[2]; [3]
  AUC(0-inf): 117 ng·h/mL
  AUC(0-t): 114 ng·h/mL
  Cmax: 33.1 ng/mL
[2]; [4]
  AUC(0-t): 134 ng·h/mL
  Cmax: 52.5 ng/mL
[2]; 4 mg, T1/2, 4 mg q.d., cycle 1 Day 1, mean
  half-life: 1.75 h
[2]; 4 mg, T1/2, 4 mg q.d., cycle 1 Day 21, mean
  half-life: 1.63 h
[2]; 4 mg, 4 mg q.d., cycle 1 Day 1, median
  Tmax: 0.96 h
[2]; 4 mg, 4 mg q.d., cycle 1 Day 21, median
  Tmax: 1.08 h
[2]; [5]
  AUC(0-inf): 524 ng·h/mL
  AUC(0-t): 666 ng·h/mL
  Cmax: 169 ng/mL
[2]; [6]
  AUC(0-inf): 315 ng·h/mL
  AUC(0-t): 304 ng·h/mL
  Cmax: 85.5 ng/mL
[2]; [7]
  AUC(0-t): 550 ng·h/mL
  Cmax: 98.2 ng/mL
[2]; [8]
  AUC(0-t): 472 ng·h/mL
  Cmax: 106 ng/mL
[2]; 8 mg, T1/2, 8 mg q.d., cycle 1 Day 1, mean
  half-life: 2.26 h
[2]; 8 mg, T1/2, 8 mg q.d., cycle 1 Day 21, mean
  half-life: 2.75 h
[2]; 8 mg, T1/2, 8 mg t.i.w., cycle 1 Day 1, mean
  half-life: 2.08 h
[2]; 8 mg, T1/2, 8 mg t.i.w., cycle 1 Last Wednesday, mean
  half-life: 2.01 h
[2]; 8 mg, 8 mg q.d., cycle 1 Day 1, median
  Tmax: 2 h
[2]; 8 mg, 8 mg q.d., cycle 1 Day 21, median
  Tmax: 2 h
[2]; 8 mg, 8 mg t.i.w., cycle 1 Day 1, median
  Tmax: 1.04 h
[2]; [9]
  AUC(0-inf): 549 ng·h/mL
  AUC(0-t): 536 ng·h/mL
  Cmax: 148 ng/mL
[2]; [10]
  AUC(0-inf): 744 ng·h/mL
  AUC(0-t): 736 ng·h/mL
  Cmax: 207 ng/mL
[2]; [11]
  AUC(0-t): 737 ng·h/mL
  Cmax: 172 ng/mL
[2]; 16 mg, 16 mg t.i.w., cycle 1 Last Wednesday, mean
  Cmax: 213 ng/mL
[2]; 16 mg, T1/2, 16 mg q.d., cycle 1 Day 1, mean
  half-life: 2.73 h
[2]; 16 mg, T1/2, 16 mg q.d., cycle 1 Day 21, mean
  half-life: 2.53 h
[2]; 16 mg, T1/2, 16 mg t.i.w., cycle 1 Day 1, mean
  half-life: 2.11 h
[2]; 16 mg, T1/2, 16 mg t.i.w., cycle 1 Last Wednesday, mean
  half-life: 2.75 h
[2]; 16 mg, 16 mg q.d., cycle 1 Day 1, median
  Tmax: 2 h
[2]; 16 mg, 16 mg q.d., cycle 1 Day 21, median
  Tmax: 2.07 h
[2]; 16 mg, 16 mg t.i.w., cycle 1 Day 1, median
  Tmax: 1 h
[2]; 16 mg, 16 mg t.i.w., cycle 1 Last Wednesday, median
  Tmax: 1 h
[2]; [12]
  AUC(0-inf): 1300 ng·h/mL
  AUC(0-t): 1190 ng·h/mL
  Cmax: 257 ng/mL
[2]; [13]
  AUC(0-t): 1180 ng·h/mL
  Cmax: 171 ng/mL
[2]; 20 mg, T1/2, 20 mg q.d., cycle 1 Day 1, mean
  half-life: ~3 h
[2]; 20 mg, T1/2, 20 mg q.d., cycle 1 Day 21, mean
  half-life: ~3 h
[2]; [14]
  AUC(0-inf): 1270 ng·h/mL
  AUC(0-t): 1220 ng·h/mL
  Cmax: 246 ng/mL
[2]; [15]
  AUC(0-inf): 2200 ng·h/mL
  AUC(0-t): 1790 ng·h/mL
  Cmax: 258 ng/mL
[2]; [16]
  AUC(0-t): 1420 ng·h/mL
  Cmax: 194 ng/mL
[2]; 24 mg, 24 mg t.i.w., cycle 1 Last Wednesday, mean
  Cmax: 361 ng/mL
[2]; 24 mg, T1/2, 24 mg q.d., cycle 1 Day 1, mean
  half-life: 3.13 h
[2]; 24 mg, T1/2, 24 mg q.d., cycle 1 Day 21, mean
  half-life: 3.12 h
[2]; 24 mg, T1/2, 24 mg t.i.w., cycle 1 Day 1, mean
  half-life: 3.52 h
[2]; 24 mg, T1/2, 24 mg t.i.w., cycle 1 Last Wednesday, mean
  half-life: 5.99 h
[2]; 24 mg, 24 mg q.d., cycle 1 Day 1, median
  Tmax: 1.98 h
[2]; 24 mg, 24 mg q.d., cycle 1 Day 21, median
  Tmax: 2 h
[2]; 24 mg, 24 mg t.i.w., cycle 1 Day 1, median
  Tmax: 3 h
[2]; 24 mg, 24 mg t.i.w., cycle 1 Last Wednesday, median
  Tmax: 1.05 h
[2]; [17]
  AUC(0-inf): 2680 ng·h/mL
  AUC(0-t): 2670 ng·h/mL
  Cmax: 556 ng/mL
[2]; 36 mg, 36 mg t.i.w., cycle 1 Last Wednesday, mean
  Cmax: 736 ng/mL
[2]; 36 mg, T1/2, 36 mg t.i.w., cycle 1 Day 1, mean
  half-life: 4.84 h
[2]; 36 mg, T1/2, 36 mg t.i.w., cycle 1 Last Wednesday, mean
  half-life: 6.57 h
[2]; 36 mg, 36 mg t.i.w., cycle 1 Day 1, median
  Tmax: 2 h
[2]; 36 mg, 36 mg t.i.w., cycle 1 Last Wednesday, median
  Tmax: 2.56 h
[2]; [18]
  AUC(0-inf): 3300 ng·h/mL
  AUC(0-t): 3290 ng·h/mL
  Cmax: 695 ng/mL
[2]; 56 mg, 56 mg t.i.w., cycle 1 Last Wednesday, mean
  Cmax: 930 ng/mL
[2]; 56 mg, T1/2, 56 mg t.i.w., cycle 1 Day 1, mean
  half-life: 5.97 h
[2]; 56 mg, T1/2, 56 mg t.i.w., cycle 1 Last Wednesday, mean
  half-life: 6.24 h
[2]; 56 mg, 56 mg t.i.w., cycle 1 Day 1, median
  Tmax: 3.08 h
[2]; 56 mg, 56 mg t.i.w., cycle 1 Last Wednesday, median
  Tmax: 2 h
[2]; [19]
  AUC(0-inf): 9560 ng·h/mL
  AUC(0-t): 7470 ng·h/mL
  Cmax: 964 ng/mL
[2]; 80 mg, 80 mg t.i.w., cycle 1 Last Wednesday, mean
  Cmax: 757 ng/mL
[2]; 80 mg, T1/2, 80 mg t.i.w., cycle 1 Day 1, mean
  half-life: 4.77 h
[2]; 80 mg, T1/2, 80 mg t.i.w., cycle 1 Last Wednesday, mean
  half-life: 5.28 h
[2]; 80 mg, 80 mg t.i.w., cycle 1 Last Wednesday, median
  Tmax: 3 h
[2]; [20]
  AUC(0-inf): 5310 ng·h/mL
  AUC(0-t): 6640 ng·h/mL
  Cmax: 713 ng/mL
[2]; 120 mg, 120 mg t.i.w., cycle 1 Last Wednesday, mean
  Cmax: 910 ng/mL
[2]; 120 mg, T1/2, 120 mg t.i.w., cycle 1 Day 1, mean
  half-life: 6.18 h
[2]; 120 mg, T1/2, 120 mg t.i.w., cycle 1 Last Wednesday, mean
  half-life: 10.6 h
[2]; 120 mg, 120 mg t.i.w., cycle 1 Day 1, median
  Tmax: 3.04 h
[2]; 120 mg, 120 mg t.i.w., cycle 1 Last Wednesday, median
  Tmax: 3.17 h
[2]; [21]
  AUC(0-t): 7980 ng·h/mL
  Cmax: 819 ng/mL
[2]; 160 mg, 160 mg t.i.w., cycle 1 Last Wednesday, mean
  Cmax: 863 ng/mL
[2]; 160 mg, T1/2, 160 mg t.i.w., cycle 1 Day 1, mean
  half-life: 8.75 h
[2]; 160 mg, T1/2, 160 mg t.i.w., cycle 1 Last Wednesday, mean
  half-life: 3.99 h
[2]; 160 mg, 160 mg t.i.w., cycle 1 Day 1, median
  Tmax: 2.52 h
[2]; 160 mg, 160 mg t.i.w., cycle 1 Last Wednesday, median
  Tmax: 5.57 h
[2]; 200 mg, 200 mg t.i.w., cycle 1 Day 1, mean
  Cmax: 1290 ng/mL
[2]; 200 mg, 200 mg t.i.w., cycle 1 Last Wednesday, n 1
  Cmax: 845 ng/mL
[2]; 200 mg, T1/2, 200 mg t.i.w., cycle 1 Day 1, mean
  half-life: 9.55 h
[2]; 200 mg, 200 mg t.i.w., cycle 1 Day 1, median
  Tmax: 2 h
